Assay results from US11065232B2, “Dihydrotetrabenazine for the treatment of anxiety and psychoses” (ADEPTIO PHARMACEUTICALS LIMITED, priority 2017, dated 2021).

Columns and labels:
[1] = target: mu (MOP) (h) (agonist radioligand) (Homo sapiens, UniProt P35372); experiment: Receptor protein binding studies, mu (MOP)
Text: (§1) The four 3,11b trans-dihydrotetrabenazine isomers (+)-α, (−)-α, (+)-β and (−)-β were subjected to specific binding assays to test their ability to bind to the receptors and transporter proteins described below. The results are set out in Table 1

[2] = target: 5-HT2B (h) (agonist radioligand) (Homo sapiens, UniProt P41595); experiment: Receptor protein binding studies, 5-HT2B
Text: as §1

[3] = target: T1, D4.4 (h) (antagonist radioligand) (Homo sapiens, UniProt P21917); experiment: Receptor protein binding studies, D4.4
T1 sequence (P21917 1-419): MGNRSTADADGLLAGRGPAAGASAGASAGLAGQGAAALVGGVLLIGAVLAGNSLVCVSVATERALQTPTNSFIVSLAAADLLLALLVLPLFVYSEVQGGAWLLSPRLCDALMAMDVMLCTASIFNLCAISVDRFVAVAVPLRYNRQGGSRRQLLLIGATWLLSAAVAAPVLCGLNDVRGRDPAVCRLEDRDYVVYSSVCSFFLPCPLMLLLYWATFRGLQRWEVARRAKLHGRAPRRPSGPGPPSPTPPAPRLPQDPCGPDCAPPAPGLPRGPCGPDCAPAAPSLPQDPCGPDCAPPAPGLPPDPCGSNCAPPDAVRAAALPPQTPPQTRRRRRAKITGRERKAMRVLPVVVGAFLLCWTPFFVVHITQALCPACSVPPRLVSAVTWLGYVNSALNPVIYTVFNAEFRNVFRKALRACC
Text: as §1

[4] = target: T2, alpha 1A (h) (antagonist radioligand) (Homo sapiens, UniProt P35348); experiment: Receptor protein binding studies, alpha 1A
T2 sequence (P35348 1-466): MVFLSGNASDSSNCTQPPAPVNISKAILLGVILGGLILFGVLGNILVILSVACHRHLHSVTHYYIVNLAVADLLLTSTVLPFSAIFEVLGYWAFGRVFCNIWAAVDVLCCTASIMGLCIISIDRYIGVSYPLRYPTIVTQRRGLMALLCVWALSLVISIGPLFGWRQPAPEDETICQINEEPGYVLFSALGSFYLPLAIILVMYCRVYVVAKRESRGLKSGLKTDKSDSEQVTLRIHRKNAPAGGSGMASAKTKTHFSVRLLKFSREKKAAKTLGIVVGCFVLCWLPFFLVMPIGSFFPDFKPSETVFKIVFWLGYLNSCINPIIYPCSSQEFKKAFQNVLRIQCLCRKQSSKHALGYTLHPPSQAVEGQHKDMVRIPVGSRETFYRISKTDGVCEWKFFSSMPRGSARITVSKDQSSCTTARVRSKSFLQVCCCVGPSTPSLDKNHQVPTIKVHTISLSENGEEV
Text: as §1

[5] = target: D1 (h) (antagonist radioligand) (Homo sapiens, UniProt P21728); experiment: Receptor protein binding studies, D1
Text: as §1

[6] = target: T3, alpha 2C (h) (antagonist radioligand) (Homo sapiens, UniProt P18825); experiment: Receptor protein binding studies, alpha 2C
T3 sequence (P18825 1-462): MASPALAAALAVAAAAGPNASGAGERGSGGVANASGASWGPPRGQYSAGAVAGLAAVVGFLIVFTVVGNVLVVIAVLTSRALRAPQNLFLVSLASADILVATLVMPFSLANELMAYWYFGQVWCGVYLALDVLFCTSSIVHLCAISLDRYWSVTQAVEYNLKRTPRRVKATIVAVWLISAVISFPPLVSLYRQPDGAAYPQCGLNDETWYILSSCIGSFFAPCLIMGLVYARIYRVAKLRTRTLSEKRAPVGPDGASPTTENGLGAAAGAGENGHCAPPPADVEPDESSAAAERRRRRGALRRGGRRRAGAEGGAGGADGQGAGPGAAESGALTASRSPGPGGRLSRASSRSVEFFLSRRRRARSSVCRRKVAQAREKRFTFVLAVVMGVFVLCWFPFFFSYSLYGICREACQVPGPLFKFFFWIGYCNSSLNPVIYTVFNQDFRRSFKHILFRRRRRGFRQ
Text: as §1

[7] = target: Dopamine D2L (Homo sapiens, UniProt P14416); experiment: Receptor protein binding studies, Dopamine D2L
Text: as §1

[8] = target: 5-HT5A(h) (Homo sapiens, UniProt P47898); experiment: Receptor protein binding studies, 5-HT5A
Text: as §1

[9] = target: T4, alpha 1B (h) (antagonist radioligand) (Homo sapiens, UniProt P35368); experiment: Receptor protein binding studies, alpha 1B
T4 sequence (P35368 1-520): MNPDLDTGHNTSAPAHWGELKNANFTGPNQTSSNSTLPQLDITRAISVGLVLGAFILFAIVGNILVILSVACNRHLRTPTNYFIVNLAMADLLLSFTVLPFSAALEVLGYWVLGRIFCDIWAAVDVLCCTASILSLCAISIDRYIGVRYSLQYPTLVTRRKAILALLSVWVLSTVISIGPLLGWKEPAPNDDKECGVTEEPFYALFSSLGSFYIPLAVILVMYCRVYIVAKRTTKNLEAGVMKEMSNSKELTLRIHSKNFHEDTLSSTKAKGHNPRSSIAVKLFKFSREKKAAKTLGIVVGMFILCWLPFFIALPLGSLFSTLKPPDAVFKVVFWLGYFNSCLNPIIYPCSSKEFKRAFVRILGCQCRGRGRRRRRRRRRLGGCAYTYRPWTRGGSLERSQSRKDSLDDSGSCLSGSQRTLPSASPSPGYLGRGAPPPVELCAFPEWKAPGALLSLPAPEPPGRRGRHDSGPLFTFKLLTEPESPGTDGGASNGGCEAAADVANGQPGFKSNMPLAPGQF
Text: as §1

[10] = CONC 1.0E−05 (unit not given), 10 μM
[11] = CONC 1.0E−06 (unit not given), 1 μM

5-HT2B (h) (agonist radioligand), sequence (P41595 whole entry): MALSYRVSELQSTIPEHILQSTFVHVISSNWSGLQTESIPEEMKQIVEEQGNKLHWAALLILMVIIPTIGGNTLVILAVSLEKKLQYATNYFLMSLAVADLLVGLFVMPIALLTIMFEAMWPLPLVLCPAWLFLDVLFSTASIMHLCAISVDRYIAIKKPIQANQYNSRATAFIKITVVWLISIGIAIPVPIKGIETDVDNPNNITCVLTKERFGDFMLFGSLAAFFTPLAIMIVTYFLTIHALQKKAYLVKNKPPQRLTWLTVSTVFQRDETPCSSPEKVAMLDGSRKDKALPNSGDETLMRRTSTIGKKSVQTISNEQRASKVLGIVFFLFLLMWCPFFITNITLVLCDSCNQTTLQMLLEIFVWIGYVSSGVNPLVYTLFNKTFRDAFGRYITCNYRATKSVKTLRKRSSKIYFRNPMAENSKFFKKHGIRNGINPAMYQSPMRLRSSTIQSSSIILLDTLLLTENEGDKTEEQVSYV
mu (MOP) (h) (agonist radioligand), sequence (P35372 whole entry): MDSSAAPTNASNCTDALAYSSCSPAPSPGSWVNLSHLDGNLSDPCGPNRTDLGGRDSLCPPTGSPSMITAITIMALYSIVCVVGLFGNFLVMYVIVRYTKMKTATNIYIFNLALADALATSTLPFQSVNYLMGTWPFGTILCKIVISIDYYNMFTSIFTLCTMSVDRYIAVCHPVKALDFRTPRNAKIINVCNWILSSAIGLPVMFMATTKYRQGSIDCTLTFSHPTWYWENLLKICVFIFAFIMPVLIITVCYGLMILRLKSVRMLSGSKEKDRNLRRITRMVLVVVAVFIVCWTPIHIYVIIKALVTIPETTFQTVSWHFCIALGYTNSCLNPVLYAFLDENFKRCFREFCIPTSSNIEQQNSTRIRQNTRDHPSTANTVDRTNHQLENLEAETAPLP
5-HT5A(h), sequence (P47898 whole entry): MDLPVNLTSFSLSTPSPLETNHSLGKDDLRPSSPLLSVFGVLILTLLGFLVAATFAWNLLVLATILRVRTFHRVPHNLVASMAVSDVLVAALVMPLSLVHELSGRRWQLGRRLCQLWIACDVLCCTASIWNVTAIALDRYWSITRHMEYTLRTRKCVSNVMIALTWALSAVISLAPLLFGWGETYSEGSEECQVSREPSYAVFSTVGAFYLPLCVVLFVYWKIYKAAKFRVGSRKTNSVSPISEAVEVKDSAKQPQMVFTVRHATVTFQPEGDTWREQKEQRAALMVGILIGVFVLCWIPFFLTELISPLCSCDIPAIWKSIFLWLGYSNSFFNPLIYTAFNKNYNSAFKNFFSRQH
Dopamine D2L, sequence (P14416 whole entry): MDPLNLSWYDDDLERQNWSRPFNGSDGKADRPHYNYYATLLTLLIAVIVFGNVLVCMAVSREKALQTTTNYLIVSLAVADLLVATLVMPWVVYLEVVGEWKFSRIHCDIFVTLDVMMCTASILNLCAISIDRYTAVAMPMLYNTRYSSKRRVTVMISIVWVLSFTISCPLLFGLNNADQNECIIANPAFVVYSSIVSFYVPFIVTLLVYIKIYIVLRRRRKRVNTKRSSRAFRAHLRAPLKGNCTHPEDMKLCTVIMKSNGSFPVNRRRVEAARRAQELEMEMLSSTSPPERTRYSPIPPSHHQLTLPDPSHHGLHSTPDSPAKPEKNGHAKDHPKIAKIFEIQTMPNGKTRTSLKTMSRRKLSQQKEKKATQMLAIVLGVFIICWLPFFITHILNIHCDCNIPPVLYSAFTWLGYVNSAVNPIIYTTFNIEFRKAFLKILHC
D1 (h) (antagonist radioligand), sequence (P21728 whole entry): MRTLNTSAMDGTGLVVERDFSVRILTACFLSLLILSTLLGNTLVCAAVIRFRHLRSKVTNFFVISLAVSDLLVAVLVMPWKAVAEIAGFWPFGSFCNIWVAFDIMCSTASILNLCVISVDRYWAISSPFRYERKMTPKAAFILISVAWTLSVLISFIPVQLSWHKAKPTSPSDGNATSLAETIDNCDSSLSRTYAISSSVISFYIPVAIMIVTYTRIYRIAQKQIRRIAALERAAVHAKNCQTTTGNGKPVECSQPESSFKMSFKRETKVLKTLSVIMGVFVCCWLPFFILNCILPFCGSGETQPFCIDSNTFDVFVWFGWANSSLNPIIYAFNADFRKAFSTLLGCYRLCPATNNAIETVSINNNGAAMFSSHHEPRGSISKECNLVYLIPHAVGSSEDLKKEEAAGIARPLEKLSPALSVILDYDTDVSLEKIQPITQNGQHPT

| Substance | % Inhibition of specific binding ([1]; CONC 1.0E−05 (unit not given)) [%] | % Inhibition of specific binding ([1]; CONC 1.0E−06 (unit not given)) [%] | % Inhibition of specific binding ([2]; CONC 1.0E−05 (unit not given)) [%] | % Inhibition of specific binding ([2]; CONC 1.0E−06 (unit not given)) [%] | activity at the dopamine D4 receptor (in words) [3] | % Inhibition of specific binding [3, 10] [%] | % Inhibition of specific binding [3, 11] [%] | % Inhibition of specific binding ([4]; CONC 1.0E−05 (unit not given)) [%] | % Inhibition of specific binding ([4]; CONC 1.0E−06 (unit not given)) [%] | % Inhibition of specific binding ([5]; CONC 1.0E−05 (unit not given)) [%] | % Inhibition of specific binding ([5]; CONC 1.0E−06 (unit not given)) [%] | % Inhibition of specific binding ([6]; CONC 1.0E−05 (unit not given)) [%] | % Inhibition of specific binding ([6]; CONC 1.0E−06 (unit not given)) [%] | % Inhibition of specific binding ([7]; CONC 1.0E−05 (unit not given)) [%] | % Inhibition of specific binding ([7]; CONC 1.0E−06 (unit not given)) [%] | % Inhibition of specific binding ([8]; CONC 1.0E−05 (unit not given)) [%] | % Inhibition of specific binding ([8]; CONC 1.0E−06 (unit not given)) [%] | % Inhibition of specific binding ([9]; CONC 1.0E−05 (unit not given)) [%] | % Inhibition of specific binding ([9]; CONC 1.0E−06 (unit not given)) [%] |
| --- | --- | --- | --- | --- | --- | --- | --- | --- | --- | --- | --- | --- | --- | --- | --- | --- | --- | --- | --- |
| (+)-α-dihydrotetrabenazine [(+)-Alpha] | 5 | 0 | 0 | −4 | essentially inactive | −7 | −3 | 12 | 7 | −2 | 0 | 5 | 4 | 14 | 10 | −2 | −26 | 23 | −4 |
| (−)-α-dihydrotetrabenazine [(−)-Alpha] | 2 | 11 | 92 | 55 | significantly less active | 65 | 19 | 6 | 1 | 45 | 5 | 69 | 17 | 68 | 27 | −6 | −24 | 14 | 9 |
| (+)-β-dihydrotetrabenazine [(+)-Beta] | 2 | 7 | −7 | −2 | essentially inactive | 2 | −3 | 33 | 2 | 8 | 0 | 12 | −7 | 18 | 1 | −13 | −23 | 1 | 3 |
